Four compounds from ChEMBL document CHEMBL5154907, “Discovery and Anti-Inflammatory Activity Evaluation of a Novel CDK8 Inhibitor through Upregulation of IL-10 for the Treatment of Inflammatory Bowel Disease In Vivo” (J Med Chem, 2022) can be followed below.

By inhibition is commonly meant the drop in the measured response relative to a control, in per cent. In general, IC50 refers to the concentration that gives 50% inhibition.

Series [1] has as its target CDK8/Cyclin C (Homo sapiens) (UniProt P49336+P24863). The series is described as follows: Inhibition of recombinant full length His tagged human CDK8/Cyclin C expressed in Baculovirus at 200 nM incubated for 60 mins in presence of ATP by ADP-Glo kinase assay. On the technique in general: ADP-Glo first removes unused ATP, then detects ADP through luciferase.
Series [2] can be described thus: Stability of compound in human liver microsome assessed as intrinsic clearance by HPLC analysis. The class given is ADME. The settings on record: liver microsomes, read-out: CLH. Background: Liver microsomes are a subcellular fraction often used to study metabolism.
A short description of series [3]: Transcriptional activity of AP-1 in R848-stimulated mouse BMDC cells transfected with pAP1-luc assessed as ratio of AP-1 activity at 5 uM treated for 24 hrs followed by R848 stimulation for 4 hrs by luminescence based microplate reader analysis relative to control. The class given is functional. The conditions noted are these: time 28 hrs.
The test system of a further series is BMDC. The series is described as follows: Anti-inflammatory activity against R848-stimulated mouse BMDC cells assessed as upregulation of IL-10 production at 5 uM treated for 24 hrs followed by R848 stimulation for 12 hrs by ELISA method (reference value: 100 %). The conditions noted are these: time 36 hrs. The class given is functional.
Another series has as its target CDK8/Cyclin C (Homo sapiens, UniProt P49336). The series is described as follows: Inhibition of recombinant full length His tagged human CDK8/Cyclin C expressed in Baculovirus incubated for 60 mins in presence of ATP by ADP-Glo kinase assay.

Chain of CDK8/Cyclin C (P49336 whole entry): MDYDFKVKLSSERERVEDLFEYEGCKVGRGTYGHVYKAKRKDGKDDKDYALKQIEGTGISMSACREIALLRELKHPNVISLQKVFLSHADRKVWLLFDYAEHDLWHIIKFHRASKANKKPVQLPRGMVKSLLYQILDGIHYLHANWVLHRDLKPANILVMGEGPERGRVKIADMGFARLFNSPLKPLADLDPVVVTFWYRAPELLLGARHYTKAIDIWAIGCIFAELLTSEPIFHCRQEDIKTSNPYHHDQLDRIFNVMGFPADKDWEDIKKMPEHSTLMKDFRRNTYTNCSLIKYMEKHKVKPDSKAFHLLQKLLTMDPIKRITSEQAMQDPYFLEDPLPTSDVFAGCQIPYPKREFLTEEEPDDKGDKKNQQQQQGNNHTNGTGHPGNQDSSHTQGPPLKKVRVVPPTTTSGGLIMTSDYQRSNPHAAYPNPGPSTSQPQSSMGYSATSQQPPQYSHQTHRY
Chain of CDK8/Cyclin C (P24863 whole entry, further chain): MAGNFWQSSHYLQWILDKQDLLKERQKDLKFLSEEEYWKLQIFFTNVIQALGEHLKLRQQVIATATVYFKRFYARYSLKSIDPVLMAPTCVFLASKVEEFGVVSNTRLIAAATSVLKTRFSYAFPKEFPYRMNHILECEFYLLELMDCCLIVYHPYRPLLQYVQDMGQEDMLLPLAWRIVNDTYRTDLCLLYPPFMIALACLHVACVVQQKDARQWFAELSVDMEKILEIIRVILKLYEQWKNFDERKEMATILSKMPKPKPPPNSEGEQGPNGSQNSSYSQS

For `O=C(Nc1ccccc1)c1ccnc(-c2ccc(C(=O)N3CCNCC3)cc2)c1`, in series [1], the inhibition is 65%. The microsomal CLint in series [2] is 10.9 µL/min/mg. In addition, the Ratio in series [3] is listed as 2.4. Further, in the series on BMDC, the Activity is given as 29%. For the same compound, the IC50 on CDK8/Cyclin C was found to be 0.08 µM.
As for `O=C(Nc1ccccc1)c1cc(O)cc(-c2ccc(C(=O)N3CCNCC3)cc2)c1`, the inhibition in series [1] amounted to 30%. The microsomal CLint in series [2] worked out at 9.5 µL/min/mg. In series [3], the Ratio came to 1.3. Also, the Activity with BMDC is recorded as 82%. Moreover, the IC50 on CDK8/Cyclin C stood at 0.53 µM.
The matching figures for `O=c1cc(-c2ccccc2)oc2cc(-c3ccc(N4CCNCC4)cc3)cc(O)c12`: 53%, 13.7 µL/min/mg, 1.5, 80% and 0.19 µM.
In the same order, the values of `Cc1ccccc1NC(=O)c1cncc(-c2ccc(C(=O)N3CCNCC3)cc2)c1` are 81%, 13 µL/min/mg, 1.5, 70% and 0.07 µM.
